Test results reported in ChEMBL document CHEMBL1275357, “Inhibition of Helicobacter pylori aminoacyl-tRNA amidotransferase by chloramphenicol analogs” (Bioorg Med Chem, 2010).

Experiment: Competitive inhibition of Helicobacter pylori aminoacyl-tRNA […] GatCAB

| Ki [µM] | SMILES |
| --- | --- |
| 27 | CS(=O)(=O)CC[C@H](N)C(=O)N[C@H](CO)[C@H](O)c1ccc([N+](=O)[O-])cc1 |
| 120 | CS(=O)(=O)CC[C@H](N)C(=O)N[C@H](CO)[C@H](O)c1ccc(S(C)(=O)=O)cc1 |
| 400 | CS(=O)(=O)CC[C@H](N)C(=O)N[C@H](CO)[C@H](O)c1ccccc1 |
| 160 | CS(=O)(=O)CC[C@H](N)C(=O)N[C@@H](CO)[C@@H](O)c1ccc([N+](=O)[O-])cc1 |
| 2800 | CS(=O)(=O)CC[C@H](N)C(=O)N[C@H](CO)[C@@H](O)c1ccc([N+](=O)[O-])cc1 |
| 370 | CS(=O)(=O)CC[C@H](N)C(=O)N[C@@H](CO)[C@H](O)c1ccc([N+](=O)[O-])cc1 |
| 4 | CN(C)c1ncnc2c1ncn2[C@@H]1O[C@H](CO)[C@@H](NC(=O)[C@@H](N)CCS(C)(=O)=O)[C@H]1O |
| 1850 | O=C(N[C@H](CO)[C@H](O)c1ccc([N+](=O)[O-])cc1)C(Cl)Cl [CHLORAMPHENICOL] |
